Test results taken from patent US10424806B2, “Organic non-aqueous cation-based redox flow batteries” (UCHICAGO ARGONNE, LLC, priority 2012, dated 2019).
Blank lines part the entries; values can stand above or below the compound they belong to.

How the values were obtained:
[1] = Solubility in solvent or electrolyte; assay type: physicochemical
[2] = Cyclic voltammetry in Pt/Li/Li three-electrode cell; assay type: physicochemical; conditions: for redox properties from cyclic voltammogram: lithium electrolyte and concentration differ per compound; for performance compared with quinoxaline: 0.005 M in Electrolyte B; for Potential: 10 mM in 1.2 M LiPF6 in EC/EMC (3:7 by weight), Pt/Li/Li
Experimental: The upper and lower redox potentials shown in FIG. 5 were determined by a combination of average peak potential and graphical analysis of the cyclic voltammograms over a range of scan rates (5, 10, 20, 50, 100, and 200 mV/s).
Cyclic voltammetry (CV) were performed in a custom-made airtight three-electrode electrochemical cell with a 2-mm diameter platinum disk working electrode and lithium metal counter and reference electrodes. Prior to use, the platinum disk electrode was dipped in nitric acid solution (about 50 vol % HNO3, Ricca Chemical Company) and then polished on a MICROCLOTH® pad with 0.3 μm and 0.05 μm alumina (Buehler Ltd., Lake Bluff, Ill.). After polishing, the electrode was thoroughly rinsed with distilled water and dried with house nitrogen. The electrochemical cell was then assembled in an Argon-filled glove box and transferred out to perform measurements. […] All evaluations were performed in triplicate at room temperature.
The redox potential of DBBB was calculated by averaging the oxidation and reduction peak potentials in the two different electrolytes at various scan rates (5, 10, 20, 50, 100, and 200 mV/s). […] The shift in the peak potential with the scan rate may be caused by the limited charge-transfer kinetics of the active species (DBBB) and the uncompensated resistance, which is commonly called the “iR drop”. Because the polarization from the kinetic effect and iR drop is triggered by the current flowing through the electrochemical cell, the average peak potential [(Epa+Epc)/2] gives a good estimation of the redox potential of the reversible electroactive species. […] Evaluations were performed in triplicate in a Pt/Li/Li cell at room temperature.

[3] = Cyclic voltammetry in Pt/Na/Na cell with sodium electrolyte; assay type: physicochemical; conditions: NaPF6 in propylene carbonate
Experimental: The redox materials described herein also can be utilized with sodium-based electrolyte salts. For example, FIG. 22(a) provides a cyclic voltammogram obtained with about 17 mM DBBB in 0.247 M Na PF6 in propylene carbonate, in a Pt/Na/Na cell at scan rates of 5, 20, 50, and 100 mV/s. FIG. 22(b) provides a cyclic voltammogram obtained with about 13 mM 2,3,6-trimethylquinoxaline in 0.217 M NaPF6 in propylene carbonate at a 20 mV/s scan rate.

[4] = Li-ion cell, 100% overcharge; cited from earlier work
[5] = Diffusion coefficient from Randle-Sevcik measurements; assay type: physicochemical
Experimental: 2,5-Di-tert-butyl-1,4-bis(2-methoxyethoxy)benzene (“DBBB”) is a redox material developed at Argonne National Laboratory for overcharge protection in Li-ion batteries. […] The diffusion coefficient of DBBB was determined to be about 1.30×10^−6 cm^2/s in the battery electrolyte based on Randle-Sevcik measurements. However, Electrolyte A is non-ideal for flow battery applications due to high volatility, extreme moisture sensitivity, and high materials cost. Thus, an electrolyte consisting of 0.2 M LiBF4 in propylene carbonate (“Electrolyte B”) was also investigated as a more robust and lower cost alternative. FIG. 2b show iR-corrected cyclic voltammograms of 0.005 M DBBB in Electrolyte A and in Electrolyte B at a scan rate of 20 mV/s. […] Thus, 2,5-di-tert-butyl-1,4-dialkoxybenzene compounds, such as DBBB, are active in different electrolyte systems, and the performance of these materials can be tailored by the choice of the electrolyte composition.

[6] = Intrinsic capacity and energy density (Table 1); assay type: physicochemical
Text: Table 1 provides a summary of the useful redox properties of these compounds.

Structure (SMILES): Oc1nc2ccccc2nc1O [2,3-Dihydroxyquinoxaline]
solubility in electrolyte solution ([1]; Electrolyte B): not soluble

Structure (SMILES): Fc1c(F)c(F)c2c(c1F)OCCO2 [Compound 5]
redox properties from cyclic voltammogram ([2]; Pt/Li/Li cell): redox properties suitable for use as redox reactants for the positive electrolyte

Structure (SMILES): [Cl-].[Cl-].c1ccc(C[n+]2ccc(-c3cc[n+](Cc4ccccc4)cc3)cc2)cc1 [bis-benzyl-4,4′-bipyridinium dichloride]
redox properties from cyclic voltammogram ([2]; Pt/Li/Li cell): suitable redox properties

Structure (SMILES): O=C(c1ccccc1)c1ccccc1 [benzophenone]
redox properties from cyclic voltammogram ([2]; Pt/Li/Li cell): suitable redox properties

Structure (SMILES): Cc1ccc2nccnc2c1 [6-methylquinoxaline]
performance compared with quinoxaline ([2]; Pt/Li/Li cell): slightly better performance than quinoxaline

Structure (SMILES): Fc1ccc(B2Oc3c(F)c(F)c(F)c(F)c3O2)c(F)c1 [Compound 6]
redox properties from cyclic voltammogram ([2]; Pt/Li/Li cell): redox properties suitable for use as redox reactants for the positive electrolyte

Structure (SMILES): Cc1cccc2nccnc12 [5-methylquinoxaline]
performance compared with quinoxaline ([2]; Pt/Li/Li cell): lower activity

Structure (SMILES): Fc1c(F)c(F)c(B2Oc3c(F)c(F)c(F)c(F)c3O2)c(F)c1F [Compound 8]
redox properties from cyclic voltammogram ([2]; Pt/Li/Li cell): redox properties suitable for use as redox reactants for the positive electrolyte

Structure (SMILES): Fc1c(F)c(F)c2c(c1F)OB(c1cc(C(F)(F)F)ccc1C(F)(F)F)O2 [Compound 7]
redox properties from cyclic voltammogram ([2]; Pt/Li/Li cell): redox properties suitable for use as redox reactants for the positive electrolyte

Structure (SMILES): FC(F)(F)c1cnc2ccccc2n1 [2-trifluoromethylquinoxaline]
redox activity ([2]; Electrolyte B): no redox activity was observed

Structure (SMILES): c1ccc2nccnc2c1 [Quinoxaline]
solubility ([1]; organic solvent or mixture, in propylene carbonate): ≥ 2000 mM

Structure (SMILES): CN1c2ccccc2N(C)c2ccccc21 [5,10-dihydro-5,10-dimethylphenazine]
redox properties from cyclic voltammogram ([2]; Pt/Li/Li cell): suitable redox properties

Structure (SMILES): Cc1cc2nc(-c3ccccn3)c(-c3ccccn3)nc2cc1C [6,7-dimethyl-2,3-di(2-pyridyl)quinoxaline]
lower redox potential ([2]; Electrolyte B, Pt/Li/Li cell, average peak potential method): about 2.6 V

Structure (SMILES): CC(=O)c1cnc2ccccc2n1 [2-Acetylquinoxaline]
redox activity ([2]; Electrolyte B): some redox activity | separation of oxidation and reduction events ([2]; Electrolyte B): about 1 V

Second part, led by results:

redox properties from cyclic voltammogram [3]: suitable reversible redox properties
Structure (SMILES): Cc1ccc2nc(C)c(C)nc2c1 [2,3,6-trimethylquinoxaline]

redox potential, average of anodic and cathodic potentials [(Epa+Epc)/2] ([2]; 0.005 M in Electrolyte A (1.2 M LiPF6 in EC/EMC 3/7 by volume), room temperature): about 3.927 V vs. Li/Li^+ | redox potential ([2]; 0.005 M in Electrolyte B (0.2 M LiBF4 in propylene carbonate), room temperature): 4.022 V vs. Li/Li^+ | redox properties from cyclic voltammogram [3]: suitable reversible redox properties | diffusion coefficient ([5]; Electrolyte A): about 1.30×10^−6 cm^2/s | diffusion coefficient ([5]; Electrolyte B): about 1.53×10^−6 cm^2/s
Structure (SMILES): COCCOc1cc(C(C)(C)C)c(OCCOC)cc1C(C)(C)C [DBBB, 2,5-Di-tert-butyl-1,4-bis(2-methoxyethoxy)benzene]
potential at which active in overcharge protection [4]: about 4.0 V vs. Li/Li^+

Energy Density [6]: 520.9 Wh/Kg | Intrinsic Capacity [6]: 112.5 mAh/g | Potential [2]: 4.63 V vs. Li/Li
Structure (SMILES): CCOc1c(F)c(F)c(OCC)c(F)c1F [TFDEB, 1,2,4,5-tetrafluoro-3,6-diethoxybenzene]

redox activity ([2]; Electrolyte B): no redox activity was observed
Structure (SMILES): BrCc1nc2ccccc2nc1CBr [2,3-bis(bromomethyl)quinoxaline]

Energy Density [6]: 599.7 Wh/Kg | Intrinsic Capacity [6]: 127.6 mAh/g | Potential [2]: 4.70 V vs. Li/Li
Structure (SMILES): COc1c(F)c(F)c(OC)c(F)c1F [TFDMB, 1,2,4,5-tetrafluoro-3,6-dimethoxybenzene]

Energy Density [6]: 422.5 Wh/Kg | Intrinsic Capacity [6]: 89.9 mAh/g | Potential [2]: 4.70 V vs. Li/Li
Structure (SMILES): COCCOc1c(F)c(F)c(OCCOC)c(F)c1F [TFBMEB, 1,2,4,5-tetrafluoro-3,6-bis(2-methoxyethoxy)benzene]
